In ChEMBL document CHEMBL1123820 (J Med Chem, 1987):
Active and inactive are the calls of the source. The calls are words filed in the database; no cut-off is given here. Where a SMILES comes first, the peptide text is derived from it. [ ]: non-standard residue; d: D form. The star is where a group is joined. Orn = NCCC[C@H](N)C(=O)O; OBn = c1ccc(CO*)cc1

Tests used:
Cavia porcellus [1] = organism: Cavia porcellus; experiment: Relative activity was measured in vitro with respect to substance P (SP) in guinea pig ileum; type: functional
Rattus norvegicus [2] = organism: Rattus norvegicus; experiment: Relative activity was measured in vitro with respect to substance P (SP) in rat colon muscularis mucosae; type: functional, Muscularis mucosa
Rattus norvegicus [3] = organism: Rattus norvegicus; experiment: Relative activity was measured in vitro with respect to substance P (SP) in rat colon muscularis mucosae at a concentration of 10 uM; Inactive; type: functional; settings: Muscularis mucosa
Cavia porcellus [4] = organism: Cavia porcellus; experiment: Relative activity was measured in vitro with respect to substance P (SP) in guinea pig ileum at a concentration of 10 uM; Inactive; type: functional

| Molecule | Relative activity (Cavia porcellus [1]) | Relative activity (Rattus norvegicus [2]) | Relative activity (Rattus norvegicus [3]) | Relative activity (Cavia porcellus [4]) |
| --- | --- | --- | --- | --- |
| CSCC[C@H](NC(=O)[C@H](CC(C)C)NC(=O)CNC(=O)[C@H](Cc1ccccc1)NC(=O)[C@H](Cc1ccccc1)NC(=O)[C@@H](N)CCCN)C(N)=O (H-[Orn]FFGLM-NH2) | 0.39 | 0.36 |  |  |
| CC(C)C[C@H](NC(=O)CNC(=O)[C@H](Cc1ccccc1)NC(=O)[C@H](Cc1ccccc1)NC(=O)[C@@H](N)CCCN)C(=O)N[C@@H](CCC(=O)O)C(N)=O (H-[Orn]FFGLE-NH2) | 0.00058 | <0.01 |  |  |
| CC(C)C[C@H](NC(=O)CNC(=O)[C@H](Cc1ccccc1)NC(=O)[C@H](Cc1ccccc1)NC(=O)[C@@H](N)CCCN)C(=O)N[C@@H](CCC(N)=O)C(N)=O (H-[Orn]FFGLQ-NH2) | 0.0022 | <0.01 |  |  |
| CC(C)C[C@H](NC(=O)CNC(=O)[C@H](Cc1ccccc1)NC(=O)[C@H](Cc1ccccc1)NC(=O)[C@@H](N)CCCN)C(=O)N[C@@H](CCC(=O)OCc1ccccc1)C(N)=O (H-[Orn]FFGLE(OBn)-NH2) | 0.14 | 0.61 |  |  |
| H-QFFGLM-NH2 | 0.3 | 0.076 |  |  |
| CC(C)C[C@H](NC(=O)CNC(=O)[C@H](Cc1ccccc1)NC(=O)[C@H](Cc1ccccc1)NC(=O)[C@@H](N)CCCN)C(=O)N[C@@H](CCCCN)C(N)=O (H-[Orn]FFGLK-NH2) |  |  | inactive | inactive |
